Results from ChEMBL document CHEMBL1201862, “PubChem BioAssay data set” (2004).
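Compound exposure: 48 hours, 5 concentrations, 96-well plates. GI50 marks 50% less growth.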 Calls of active or inactive are those of the source. Cut-off read from the data, not from the text of the source: active = GI50 up to about 1.1 µM and inactive = higher.

Legend:
Test in all cases: NCI-60 cell line screen, 48 h
HCT-116 = tested on: HCT-116
HCT-15 = tested on: HCT-15
KM12 = tested on: KM12
LXFL 529 = tested on: LXFL 529
M14 = tested on: M14
MOLT-4 = tested on: MOLT-4
NCI-H226 = tested on: NCI-H226
NCI-H23 = tested on: NCI-H23
OVCAR-4 = tested on: OVCAR-4
SF-268 = tested on: SF-268
SF-295 = tested on: SF-295
SF-539 = tested on: SF-539
SK-MEL-5 = tested on: SK-MEL-5
SN12C = tested on: SN12C
SNB-75 = tested on: SNB-75
SR = tested on: SR
BT-549 = tested on: BT-549
Hs-578T = tested on: Hs-578T
MDA-MB-231 = tested on: MDA-MB-231
NCI/ADR-RES = tested on: NCI/ADR-RES

Compound | GI50 (HCT-116) | GI50 (HCT-15) [µM] | GI50 (KM12) | GI50 (LXFL 529) | GI50 (M14) | GI50 (MOLT-4) | GI50 (NCI-H226) | GI50 (NCI-H23) | GI50 (OVCAR-4) | GI50 (SF-268) | GI50 (SF-295) | GI50 (SF-539) | GI50 (SK-MEL-5) | GI50 (SN12C) | GI50 (SNB-75) | GI50 (SR) | GI50 (BT-549) | GI50 (Hs-578T) | GI50 (MDA-MB-231) | GI50 (NCI/ADR-RES)
O=C(CCc1nnc(S)[nH]1)Nc1cc(Cl)c(Cl)cc1Cl | > 100 µM (inactive) | > 100 | > 100 µM (inactive) | > 100 µM (inactive) | > 100 µM (inactive) | > 100 µM (inactive) | > 100 µM (inactive) | > 100 µM (inactive) | > 100 µM (inactive) | > 100 µM (inactive) | > 100 µM (inactive) | > 100 µM (inactive) | > 100 µM (inactive) | > 100 µM (inactive) | 25.4 µM (inactive) |  |  |  |  | 
[N-]=[N+]=N/C1=C/CCCCC(=O)C1 |  | > 100 |  | > 100 µM (inactive) | > 100 µM (inactive) | > 100 µM (inactive) |  | > 100 µM (inactive) | > 100 µM (inactive) | > 100 µM (inactive) |  |  | > 100 µM (inactive) | > 100 µM (inactive) | > 100 µM (inactive) |  |  |  |  | 
CCOC(=O)C1C=C2O[C@@H]3OC4(CCCCC4)O[C@@H]3C2C2C(=O)CCC(=O)[C@@]12C(=O)OC (some centres not stated) | > 100 µM (inactive) | > 100 | > 100 µM (inactive) | > 100 µM (inactive) | > 100 µM (inactive) | > 100 µM (inactive) | > 100 µM (inactive) | > 100 µM (inactive) | > 100 µM (inactive) | > 100 µM (inactive) | > 100 µM (inactive) |  | > 100 µM (inactive) | > 100 µM (inactive) | > 100 µM (inactive) |  |  |  |  | 
[O-][n+]1c2cc3c(cc2[n+]([O-])c2c(O)cccc21)CN(CCN1CCOCC1)C3 | 11.4 µM (inactive) | 27.4 | 16.8 µM (inactive) | 14.1 µM (inactive) | 49.5 µM (inactive) | 4.43 µM (inactive) | 41.9 µM (inactive) | 30.7 µM (inactive) | 62.2 µM (inactive) | 11.2 µM (inactive) | 13.1 µM (inactive) |  | 56 µM (inactive) | 29 µM (inactive) | 89.1 µM (inactive) | 2.48 µM (inactive) |  |  |  | 
CC(=O)O[C@H]1C=CC23OC(=O)[C@]1(C)[C@H]2[C@H](C(=O)O)C12CC(=O)[C@@](CO)(CC[C@H]13)C2 | > 100 µM (inactive) | > 100 | > 100 µM (inactive) | > 100 µM (inactive) | > 100 µM (inactive) | > 100 µM (inactive) | > 100 µM (inactive) | > 100 µM (inactive) | > 100 µM (inactive) | > 100 µM (inactive) | > 100 µM (inactive) | > 100 µM (inactive) | > 100 µM (inactive) | > 100 µM (inactive) |  | > 100 µM (inactive) |  |  |  | 
O=C(CC1(O)C(=O)Nc2ccc([N+](=O)[O-])cc21)c1ccc(Br)cc1 (configuration not stated) | 37.2 µM (inactive) | > 100 | 42.9 µM (inactive) | 47.1 µM (inactive) | > 100 µM (inactive) | 35.8 µM (inactive) | 85.1 µM (inactive) | 40.6 µM (inactive) | 49.7 µM (inactive) | 55.1 µM (inactive) | 52.6 µM (inactive) | 59.4 µM (inactive) |  | > 100 µM (inactive) | 23.3 µM (inactive) |  |  |  |  | 
O=C1OC(CC(=O)c2ccc(F)cc2)C(Cl)=C1Cl (configuration not stated) | 23.3 µM (inactive) | 18.4 | 16.7 µM (inactive) | 18 µM (inactive) | 22.9 µM (inactive) | 29 µM (inactive) | 18.5 µM (inactive) | 29.6 µM (inactive) | 19.6 µM (inactive) | > 10 µM (inactive) | > 100 µM (inactive) | 19 µM (inactive) | 25.5 µM (inactive) | 19.4 µM (inactive) |  | 27.2 µM (inactive) |  |  |  | 
COc1cc2c(c(OC)c1OC)-c1ccc(SC)c(=O)cc1[C@@H](NCc1ccccc1[N+](=O)[O-])CC2 | 0.00644 µM (active) | 0.0113 | 0.00406 µM (active) | 0.0128 µM (active) | 0.00546 µM (active) | 0.0241 µM (active) | 0.0234 µM (active) | 0.00429 µM (active) | 0.719 µM (active) | 0.0106 µM (active) | 0.00826 µM (active) | 0.00525 µM (active) | 0.00411 µM (active) | 0.0209 µM (active) | 0.00225 µM (active) |  |  |  |  | 
COC(=O)/C=C(C)/C=C/c1c(C)c(C(C)=O)c(C)n1C | > 100 µM (inactive) | > 100 | > 100 µM (inactive) | 88.3 µM (inactive) | > 100 µM (inactive) | 40.3 µM (inactive) | 80.4 µM (inactive) | > 100 µM (inactive) | 80.9 µM (inactive) | > 100 µM (inactive) | > 100 µM (inactive) | > 100 µM (inactive) |  | > 100 µM (inactive) |  |  |  |  |  | 
CNC1C(OC2C(OC3C(O)C(O)C(O)C(O)C3O)OC(C)C2(O)CO)OC(CO)C(O)C1O.N=C(N)N.NC(=O)O (configuration not stated) | > 100 µM (inactive) | > 100 | > 100 µM (inactive) |  | > 100 µM (inactive) | > 100 µM (inactive) | > 100 µM (inactive) | > 100 µM (inactive) | > 100 µM (inactive) | > 100 µM (inactive) | > 100 µM (inactive) | > 100 µM (inactive) | > 100 µM (inactive) | > 100 µM (inactive) | > 100 µM (inactive) | > 100 µM (inactive) | > 100 µM (inactive) | > 100 µM (inactive) | > 100 µM (inactive) | > 100 µM (inactive)
CC1=CC(=O)N(c2c(C)cccc2Cl)C(C)N1 (configuration not stated) | > 100 µM (inactive) | > 100 | > 100 µM (inactive) | > 100 µM (inactive) | > 100 µM (inactive) | > 100 µM (inactive) | > 100 µM (inactive) | > 100 µM (inactive) | > 100 µM (inactive) | > 100 µM (inactive) | > 100 µM (inactive) | > 100 µM (inactive) | > 100 µM (inactive) | > 100 µM (inactive) | > 100 µM (inactive) |  |  |  |  | 
Nc1ccn(CCNCCn2cnc3nc(N)[nH]c(=O)c32)c(=O)n1 | > 100 µM (inactive) | > 100 | > 100 µM (inactive) | > 100 µM (inactive) |  |  | > 100 µM (inactive) | > 100 µM (inactive) | > 100 µM (inactive) | > 100 µM (inactive) | > 100 µM (inactive) | > 100 µM (inactive) |  | > 100 µM (inactive) |  | > 100 µM (inactive) |  |  |  | 
C/C(=N\Nc1ccc2ccccc2n1)c1ccccc1O | > 100 µM (inactive) | 11.4 | > 100 µM (inactive) |  | > 100 µM (inactive) | 4.69 µM (inactive) | > 90.2 µM (inactive) | > 100 µM (inactive) | > 100 µM (inactive) | 24.5 µM (inactive) | 8.07 µM (inactive) | > 68.9 µM (inactive) | > 100 µM (inactive) | > 100 µM (inactive) | < 0.01 µM (active) | 3.15 µM (inactive) | > 100 µM (inactive) | > 83.2 µM (inactive) | > 83 µM (inactive) | > 37.5 µM (inactive)
CC1=NN(C(=O)CC(=O)Nc2ccc(Cl)cc2)C(=O)C1/N=N\c1ccc(S(=O)(=O)c2ccc(/N=N/C3C(=O)N(C(=O)CC(=O)Nc4ccc(Cl)cc4)N=C3C)cc2)cc1 (configuration not stated) | > 100 µM (inactive) | 60.8 | > 100 µM (inactive) |  | 65.2 µM (inactive) | > 100 µM (inactive) | > 100 µM (inactive) | > 100 µM (inactive) | > 100 µM (inactive) | > 100 µM (inactive) | > 100 µM (inactive) | > 100 µM (inactive) | 95.7 µM (inactive) | > 100 µM (inactive) | 39.5 µM (inactive) | > 100 µM (inactive) | > 100 µM (inactive) | > 100 µM (inactive) | 51.9 µM (inactive) | > 100 µM (inactive)
COC1CC(O[C@H]2CC[C@@]3(C)[C@@H](CC[C@]4(O)[C@@H]3CC[C@]3(C)[C@@H](C(C)=O)[C@H](OC(=O)CC(C)C)[C@@H](OC(=O)c5ccccc5)[C@@]34O)C2)OC(C)C1OC1CC(OC)C(OC2OC(C)C(O)C(OC)C2O)C(C)O1 (some centres not stated) | 10.4 µM (inactive) | 9.95 | 12.9 µM (inactive) |  | 16.1 µM (inactive) | 7.08 µM (inactive) | 13.6 µM (inactive) | > 25 µM (inactive) | 19.1 µM (inactive) | > 25 µM (inactive) | 16.9 µM (inactive) | > 25 µM (inactive) | 17.8 µM (inactive) | > 25 µM (inactive) | 11.9 µM (inactive) | 11.3 µM (inactive) | > 25 µM (inactive) | 8.09 µM (inactive) | 18.4 µM (inactive) | 19.9 µM (inactive)
O=C(NNC(=S)Nc1ccc(Cl)cc1)c1cc(-c2ccccc2)nc2ccccc12 | 3.06 µM (inactive) | 3.43 | 4.49 µM (inactive) |  | 4.97 µM (inactive) | 4.24 µM (inactive) | 11.5 µM (inactive) | 4.94 µM (inactive) | 10.5 µM (inactive) | 11.7 µM (inactive) | 2.52 µM (inactive) | 3.69 µM (inactive) | 3.73 µM (inactive) | 4.97 µM (inactive) | 4.9 µM (inactive) | 2.21 µM (inactive) | 4.6 µM (inactive) | 11.7 µM (inactive) | 12.2 µM (inactive) | 5.27 µM (inactive)
C=C1CC(C)(COc2ccc3c(C)c(Cl)c(=O)oc3c2)OC1=O (configuration not stated) | 0.408 µM (active) | 2.03 | 3.65 µM (inactive) |  | 1.26 µM (inactive) | 1.05 µM (active) | 2.83 µM (inactive) | 1.21 µM (inactive) | 2.31 µM (inactive) | 3.52 µM (inactive) | 6.12 µM (inactive) | 3.61 µM (inactive) | 1.43 µM (inactive) | 5.07 µM (inactive) | 2.02 µM (inactive) | 0.865 µM (active) | 1.31 µM (inactive) | 3.11 µM (inactive) | 3.53 µM (inactive) | 2.35 µM (inactive)
